From the supplement of paper PMC10307832 come the findings set out here.

Common to all, as to experiment: relative viability (nuclei count vs DMSO), 5 days (fraction); higher = more cells survive
Compound in experiment [1]: Nc1ccn([C@@H]2O[C@H](CO)[C@@H](O)C2(F)F)c(=O)n1 [Gemcitabine] + COc1cccc2cc(-c3nc([C@H]4CC[C@H](C(=O)O)CC4)n4ncnc(N)c34)[nH]c12 [OSI-027] (partner 0.5 µM)
Put shortly: (§1)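 Each reported value is a median over duplicate plates. It expresses relative viability: treated-well nuclei count divided by vehicle-well nuclei count. Lung cancer cell lines in 1536-well plates were dosed by pin tool a day after seeding, alone with one drug or with a fixed anchor-drug dose plus five library-drug doses (not always all listed) in √10 steps, and nuclei were counted after 5 days.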

Compound in experiment [2]: Nc1ccn([C@@H]2O[C@H](CO)[C@@H](O)C2(F)F)c(=O)n1 [Gemcitabine] + CC(=O)Nc1cccc(-n2c(=O)n(C3CC3)c(=O)c3c(Nc4ccc(I)cc4F)n(C)c(=O)c(C)c32)c1 [Trametinib] (partner 0.02 µM)
Put shortly:
as §1

Compound in experiment [3]: Nc1ccn([C@@H]2O[C@H](CO)[C@@H](O)C2(F)F)c(=O)n1 [Gemcitabine] + C[C@]1(O)C[C@@H](c2nc(-c3ccc4ccc(-c5ccccc5)nc4c3)c3c(N)nccn32)C1 [Linsitinib] (partner 1 µM)
Put shortly:
as §1

Compound in experiment [4]: Nc1ccn([C@@H]2O[C@H](CO)[C@@H](O)C2(F)F)c(=O)n1 [Gemcitabine] + CS(=O)(=O)CCNCc1ccc(-c2ccc3ncnc(Nc4ccc(OCc5cccc(F)c5)c(Cl)c4)c3c2)o1 [Lapatinib] (partner 2 µM)
In outline:
as §1

Take NCI-H2085: the relative viability in experiment [1] (first compound 0.001 µM) amounted to 0.896; in experiment [1] (first compound 0.003162 µM) it was 0.75; in experiment [1] (first compound 0.01 µM), 0.479; in experiment [1] (first compound 0.03162 µM), 0.414; in experiment [1] (first compound 0.1 µM), 0.189; in experiment [2] (first compound 0.001 µM) it was 0.512. Besides, the relative viability in experiment [2] (first compound 0.003162 µM) is 0.589; in experiment [2] (first compound 0.01 µM), 0.472; in experiment [2] (first compound 0.03162 µM), 0.174; in experiment [2] (first compound 0.1 µM) it was 0.226; in experiment [3] (first compound 0.001 µM), 0.795; in experiment [3] (first compound 0.003162 µM), 0.967. In addition, the relative viability in experiment [3] (first compound 0.01 µM) is 0.705; in experiment [3] (first compound 0.03162 µM), 0.57; in experiment [3] (first compound 0.1 µM) it was 0.404; in experiment [4] (first compound 0.001 µM) it was 0.811; in experiment [4] (first compound 0.003162 µM), 0.811; in experiment [4] (first compound 0.01 µM), 0.668. The relative viability in experiment [4] (first compound 0.03162 µM) is 0.434; in experiment [4] (first compound 0.1 µM) it was 0.302.

As for NCI-H2087, the relative viability turned out to be 0.532 in experiment [1] (first compound 0.001 µM); 0.229 in experiment [1] (first compound 0.003162 µM); 0.112 in experiment [1] (first compound 0.01 µM); 0.0781 in experiment [1] (first compound 0.03162 µM); 0.0817 in experiment [1] (first compound 0.1 µM); 0.191 in experiment [2] (first compound 0.001 µM). Further, the relative viability in experiment [2] (first compound 0.003162 µM) amounted to 0.204; in experiment [2] (first compound 0.01 µM), 0.141; in experiment [2] (first compound 0.03162 µM), 0.121; in experiment [2] (first compound 0.1 µM), 0.0794; in experiment [3] (first compound 0.001 µM), 0.93; in experiment [3] (first compound 0.003162 µM) it was 0.808. Further, the relative viability in experiment [3] (first compound 0.01 µM) is 0.579; in experiment [3] (first compound 0.03162 µM), 0.217; in experiment [3] (first compound 0.1 µM) it was 0.183; in experiment [4] (first compound 0.001 µM), 0.9; in experiment [4] (first compound 0.003162 µM) it was 0.814; in experiment [4] (first compound 0.01 µM), 0.396. Moreover, the values for the relative viability in experiment [4] (first compound 0.03162 µM) and in experiment [4] (first compound 0.1 µM) were 0.17 and 0.161, respectively.

As to NCI-H2126, the relative viability in experiment [1] (first compound 0.001 µM) was determined as 0.733; in experiment [1] (first compound 0.003162 µM), 0.596; in experiment [1] (first compound 0.01 µM) it was 0.609; in experiment [1] (first compound 0.03162 µM) it was 0.447; in experiment [1] (first compound 0.1 µM), 0.279; in experiment [2] (first compound 0.001 µM), 0.59. Further, the relative viability stood at 0.57 in experiment [2] (first compound 0.003162 µM); 0.514 in experiment [2] (first compound 0.01 µM); 0.418 in experiment [2] (first compound 0.03162 µM); 0.305 in experiment [2] (first compound 0.1 µM); 0.712 in experiment [3] (first compound 0.001 µM); 0.673 in experiment [3] (first compound 0.003162 µM). For the same cell line, the relative viability was determined as 0.692 in experiment [3] (first compound 0.01 µM); 0.51 in experiment [3] (first compound 0.03162 µM); 0.315 in experiment [3] (first compound 0.1 µM); 0.704 in experiment [4] (first compound 0.001 µM); 0.764 in experiment [4] (first compound 0.003162 µM); 0.738 in experiment [4] (first compound 0.01 µM). For the same cell line, the relative viability in experiment [4] (first compound 0.03162 µM) was found to be 0.615; in experiment [4] (first compound 0.1 µM), 0.394.

Regarding NCI-H2228, the relative viability in experiment [1] (first compound 0.001 µM) is 0.614; in experiment [1] (first compound 0.003162 µM), 0.24; in experiment [1] (first compound 0.01 µM) it was 0.129; in experiment [1] (first compound 0.03162 µM), 0.122; in experiment [1] (first compound 0.1 µM), 0.0908; in experiment [2] (first compound 0.001 µM), 0.587. The relative viability in experiment [2] (first compound 0.003162 µM) amounted to 0.248; in experiment [2] (first compound 0.01 µM), 0.156; in experiment [2] (first compound 0.03162 µM) it was 0.0861; in experiment [2] (first compound 0.1 µM) it was 0.111; in experiment [3] (first compound 0.001 µM), 0.569; in experiment [3] (first compound 0.003162 µM), 0.666. For the same cell line, the relative viability in experiment [3] (first compound 0.01 µM) came out at 0.186; in experiment [3] (first compound 0.03162 µM) it was 0.217; in experiment [3] (first compound 0.1 µM), 0.112; in experiment [4] (first compound 0.001 µM), 1.06; in experiment [4] (first compound 0.003162 µM), 0.827; in experiment [4] (first compound 0.01 µM) it was 0.207. Further, the relative viability in experiment [4] (first compound 0.03162 µM) amounted to 0.109; in experiment [4] (first compound 0.1 µM), 0.148.

Regarding NCI-H2347, the relative viability in experiment [1] (first compound 0.001 µM) worked out at 0.434; in experiment [1] (first compound 0.003162 µM), 0.431; in experiment [1] (first compound 0.01 µM) it was 0.307; in experiment [1] (first compound 0.03162 µM), 0.242; in experiment [1] (first compound 0.1 µM) it was 0.24; in experiment [2] (first compound 0.001 µM), 0.305. The relative viability in experiment [2] (first compound 0.003162 µM) was 0.255; in experiment [2] (first compound 0.01 µM), 0.276; in experiment [2] (first compound 0.03162 µM), 0.258; in experiment [2] (first compound 0.1 µM), 0.2; in experiment [3] (first compound 0.001 µM) it was 1; in experiment [3] (first compound 0.003162 µM) it was 0.918. Moreover, the relative viability worked out at 0.88 in experiment [3] (first compound 0.01 µM); 0.606 in experiment [3] (first compound 0.03162 µM); 0.458 in experiment [3] (first compound 0.1 µM); 0.952 in experiment [4] (first compound 0.001 µM); 0.896 in experiment [4] (first compound 0.003162 µM); 0.646 in experiment [4] (first compound 0.01 µM). Moreover, the relative viability in experiment [4] (first compound 0.03162 µM) came to 0.655; in experiment [4] (first compound 0.1 µM), 0.467.

NCI-H2405: the relative viability is 0.641 in experiment [1] (first compound 0.001 µM); 0.314 in experiment [1] (first compound 0.003162 µM); 0.32 in experiment [1] (first compound 0.01 µM); 0.211 in experiment [1] (first compound 0.03162 µM); 0.196 in experiment [1] (first compound 0.1 µM); 0.689 in experiment [2] (first compound 0.001 µM). The relative viability in experiment [2] (first compound 0.003162 µM) worked out at 0.67; in experiment [2] (first compound 0.01 µM), 0.457; in experiment [2] (first compound 0.03162 µM), 0.211; in experiment [2] (first compound 0.1 µM), 0.211; in experiment [3] (first compound 0.001 µM) it was 0.965; in experiment [3] (first compound 0.003162 µM), 0.651. Further, the relative viability in experiment [3] (first compound 0.01 µM) stood at 0.393; in experiment [3] (first compound 0.03162 µM), 0.237; in experiment [3] (first compound 0.1 µM) it was 0.182; in experiment [4] (first compound 0.001 µM), 1.03; in experiment [4] (first compound 0.003162 µM) it was 0.445; in experiment [4] (first compound 0.01 µM), 0.362. For the same cell line, the relative viability in experiment [4] (first compound 0.03162 µM) is 0.243; in experiment [4] (first compound 0.1 µM) it was 0.162.

Regarding NCI-H3122, the relative viability in experiment [1] (first compound 0.001 µM) was found to be 1.05; in experiment [1] (first compound 0.003162 µM), 0.918; in experiment [1] (first compound 0.01 µM), 0.246; in experiment [1] (first compound 0.03162 µM), 0.133; in experiment [1] (first compound 0.1 µM), 0.112; in experiment [2] (first compound 0.001 µM), 0.219. Moreover, the relative viability worked out at 0.237 in experiment [2] (first compound 0.003162 µM); 0.174 in experiment [2] (first compound 0.01 µM); 0.141 in experiment [2] (first compound 0.03162 µM); 0.0965 in experiment [2] (first compound 0.1 µM); 1.04 in experiment [3] (first compound 0.001 µM); 0.957 in experiment [3] (first compound 0.003162 µM). Besides, the relative viability is 0.892 in experiment [3] (first compound 0.01 µM); 0.262 in experiment [3] (first compound 0.03162 µM); 0.174 in experiment [3] (first compound 0.1 µM); 1.02 in experiment [4] (first compound 0.001 µM); 1.04 in experiment [4] (first compound 0.003162 µM); 0.926 in experiment [4] (first compound 0.01 µM). Besides, the relative viability in experiment [4] (first compound 0.03162 µM) is 0.476; in experiment [4] (first compound 0.1 µM), 0.243.
